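How tested: cells in 96-well plates exposed to compound for 48 hours at five concentrations. At the GI50, growth is halved. TGI: concentration producing complete growth inhibition.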
Experiments:
Assay in all cases: NCI tumour cell line growth inhibition, 48 h
[1] = test system: EKVX NSCLC
[2] = test system: MCF7 breast
[3] = test system: OVCAR-8 ovarian
[4] = test system: SW-620 colon
[5] = test system: SF-539 CNS
[6] = test system: UO-31 renal
[7] = test system: UACC-257 melanoma
[8] = test system: MOLT-4 leukemia
[9] = test system: CCRF-CEM leukemia
[10] = test system: IGROV1 ovarian
[11] = test system: NCI-H226 lung
[12] = test system: T-47D breast
[13] = test system: HL-60(TB) leukemia
[14] = test system: BT-549 breast
[15] = test system: K-562 leukemia
[16] = test system: SNB-19 CNS
[17] = test system: COLO 205 colon
[18] = test system: HCC-2998 colon
[19] = test system: NCI/ADR-RES ovarian
[20] = test system: NCI-H460 lung
[21] = test system: HOP-62 NSCLC
[22] = test system: MDA-MB-435
[23] = test system: A549 NSCLC
[24] = test system: DU-145 prostate
[25] = test system: UACC-62 melanoma
[26] = test system: MDA-MB-231 breast
[27] = test system: HCT-116 colon
[28] = test system: LOX IMVI melanoma
[29] = test system: CAKI-1 renal
[30] = test system: RPMI-8226 leukemia
[31] = test system: HT29 colon
[32] = test system: MALME-3M melanoma
[33] = test system: SK-MEL-28 melanoma
[34] = test system: M14 melanoma
[35] = test system: OVCAR-4 ovarian
[36] = test system: TK-10 renal
[37] = test system: HCT-15 colon
[38] = test system: SF-268 CNS
[39] = test system: 786-0 renal
[40] = test system: U251 CNS
[41] = test system: SK-MEL-2 melanoma
[42] = test system: PC-3 prostate
[43] = test system: SF-295 CNS
[44] = test system: SN12C renal
[45] = test system: OVCAR-3 ovarian
[46] = test system: SNB-75 CNS
[47] = test system: HOP-92 NSCLC
[48] = test system: ACHN renal
[49] = test system: SK-MEL-5 melanoma
[50] = test system: SR leukemia
[51] = test system: NCI-H23 lung
[52] = test system: NCI-H522 lung
[53] = test system: OVCAR-5 ovarian
[54] = test system: RXF 393 renal
[55] = test system: HS 578T breast
[56] = test system: SK-OV-3 ovarian
[57] = test system: KM12 colon

Structure (SMILES): O=S(=O)(Nc1cc(F)cc(F)c1)c1ccc(-c2cnc(C3CC3)o2)cc1
- GI50 [1]: 5.31 µM
- TGI [1]: > 100 µM
- GI50 [2]: 1.45 µM
- TGI [2]: > 100 µM
- GI50 [3]: 4.31 µM
- TGI [3]: > 100 µM
- GI50 [4]: 1.12 µM
- TGI [4]: > 100 µM
- GI50 [5]: 2.52 µM
- TGI [5]: 14.6 µM
- GI50 [6]: 4.69 µM
- TGI [6]: > 100 µM
- GI50 [7]: 12.3 µM
- TGI [7]: 52.9 µM
- GI50 [8]: 3.73 µM
- TGI [8]: > 100 µM
- GI50 [9]: 2.44 µM
- TGI [9]: > 100 µM
- GI50 [10]: 2.01 µM
- TGI [10]: > 100 µM
- GI50 [11]: 3.88 µM
- TGI [11]: 53 µM
- GI50 [12]: 3.08 µM
- TGI [12]: 79.9 µM
- GI50 [13]: 2.12 µM
- TGI [13]: 13.8 µM
- GI50 [14]: 3.33 µM
- TGI [14]: 46.7 µM
- GI50 [15]: 0.582 µM
- TGI [15]: > 100 µM
- GI50 [16]: 3.73 µM
- TGI [16]: > 100 µM
- GI50 [17]: 2.08 µM
- TGI [17]: 12.3 µM
- GI50 [18]: 5.62 µM
- TGI [18]: 44.2 µM
- GI50 [19]: 1.7 µM
- TGI [19]: 68.1 µM
- GI50 [20]: 2.64 µM
- TGI [20]: 21.4 µM
- GI50 [21]: 2.6 µM
- TGI [21]: 33.6 µM
- GI50 [22]: 0.305 µM
- TGI [22]: 2.09 µM
- GI50 [23]: 3.8 µM
- TGI [23]: > 100 µM
- GI50 [24]: 4.11 µM
- TGI [24]: > 100 µM
- GI50 [25]: 0.94 µM
- TGI [25]: 20 µM
- GI50 [26]: 6.46 µM
- TGI [26]: 41.7 µM
- GI50 [27]: 3.04 µM
- TGI [27]: > 100 µM
- GI50 [28]: 4.34 µM
- TGI [28]: > 100 µM
- GI50 [29]: 1.19 µM
- TGI [29]: 38.4 µM
- GI50 [30]: 3.44 µM
- TGI [30]: 66.2 µM
- GI50 [31]: 1.76 µM
- TGI [31]: 12.9 µM
- GI50 [32]: 2.98 µM
- TGI [32]: 70.1 µM
- GI50 [33]: 13.3 µM
- TGI [33]: > 100 µM
- GI50 [34]: 1.85 µM
- TGI [34]: > 100 µM
- GI50 [35]: 5.93 µM
- TGI [35]: 90.9 µM
- GI50 [36]: 8.65 µM
- TGI [36]: 68.7 µM
- GI50 [37]: 0.702 µM
- TGI [37]: 47.9 µM
- GI50 [38]: 6.73 µM
- TGI [38]: 48.8 µM
- GI50 [39]: 5.05 µM
- TGI [39]: > 100 µM
- GI50 [40]: 3.28 µM
- TGI [40]: > 100 µM
- GI50 [41]: 4.51 µM
- TGI [41]: 41.6 µM
- GI50 [42]: 1.99 µM
- TGI [42]: > 100 µM
- GI50 [43]: 1.29 µM
- TGI [43]: 11.7 µM
- GI50 [44]: 4.87 µM
- TGI [44]: 59.6 µM
- GI50 [45]: 1.57 µM
- TGI [45]: 15.6 µM
- GI50 [46]: 1.05 µM
- TGI [46]: 3.98 µM
- GI50 [47]: 1.68 µM
- TGI [47]: 11.4 µM
- GI50 [48]: 4.92 µM
- TGI [48]: > 100 µM
- GI50 [49]: 3.27 µM
- TGI [49]: 13.1 µM
- GI50 [50]: 0.513 µM
- TGI [50]: > 100 µM
- GI50 [51]: 4.55 µM
- TGI [51]: 77.1 µM
- GI50 [52]: 2.03 µM
- TGI [52]: 40.4 µM
- GI50 [53]: 6.12 µM
- TGI [53]: > 100 µM
- GI50 [54]: 1.66 µM
- TGI [54]: 6.79 µM
- GI50 [55]: 1.83 µM
- TGI [55]: 8.6 µM
- GI50 [56]: 3.8 µM
- TGI [56]: 42 µM
- GI50 [57]: 0.869 µM
- TGI [57]: 32 µM
